# Measured values: the supplement of paper PMC9103864
# How the values were obtained:
# [1] = test system: BMSC (primary human bone marrow mesenchymal stromal cells); assay: drug sensitivity score (DSS); higher = more sensitive
# [2] = test system: BMSC (primary human bone marrow mesenchymal stromal cells); assay: absolute EC50 for viability; higher = less sensitive
SMILES,drug sensitivity score [1],absolute EC50 for viability [2]
COc1cc(Nc2ncc(F)c(Nc3ccc4c(n3)N(COP(=O)(O)O)C(=O)C(C)(C)O4)n2)cc(OC)c1OC [Fostamatinib],5.2,> 2.5 µM
O=c1sn(-c2cccc3ccccc23)c(=O)n1Cc1ccccc1 [Tideglusib],0,> 3 µM
C[C@H]1CNCCCN1S(=O)(=O)c1cccc2cncc(F)c12 [Ripasudil],1.1,> 10 µM
C=CC[C@@H]1/C=C(\C)C[C@H](C)C[C@H](OC)[C@H]2O[C@@](O)(C(=O)C(=O)N3CCCC[C@H]3C(=O)O[C@H](/C(C)=C/[C@@H]3CC[C@@H](O)[C@H](OC)C3)[C@H](C)[C@@H](O)CC1=O)[C@H](C)C[C@@H]2OC [Tacrolimus],1.8,> 10 µM
Cc1nc(Nc2ncc(C(=O)Nc3c(C)cccc3Cl)s2)cc(N2CCN(CCO)CC2)n1 [Dasatinib],9.2,0.132 µM
CONC(=O)c1ccccc1Nc1cc(Nc2cc(C)nn2C(C)C)ncc1Cl,0.1,> 1 µM
Cc1cc(Nc2ncc(Cl)c(Nc3ccccc3S(=O)(=O)C(C)C)n2)c(OC(C)C)cc1C1CCNCC1 [Ceritinib],1.3,> 2.5 µM
CC[C@]1(O)C[C@@H]2CN(CCc3c([nH]c4ccccc34)[C@@](C(=O)OC)(c3cc4c(cc3OC)N(C)[C@H]3[C@@](O)(C(=O)OC)[C@H](OC(C)=O)[C@]5(CC)C=CCN6CC[C@]43[C@@H]65)C2)C1 [Vinblastine],1.9,> 1 µM
C[C@]12CC[C@H](O)CC1=CC[C@@H]1[C@@H]2CC[C@]2(C)C(c3cccnc3)=CC[C@@H]12 [Abiraterone],0,> 5 µM
COc1cccc2c1c(O)c(C(=O)N(C)c1ccc(C(F)(F)F)cc1)c(=O)n2C [Tasquinimod],0.8,> 10 µM
COc1cc2c(cc1OC(C)C)[C@H](c1ccc(Cl)cc1)N(c1ccc(N(C)C[C@H]3CC[C@H](N4CCN(C)C(=O)C4)CC3)cc1)C(=O)C2 [NVP-CGM097],9.2,4.61 µM
COc1cc2c(NC3CCN(C(C)C)CC3)nc(N3CCC(F)(F)CC3)nc2cc1OCCCN1CCCC1 [UNC0642],5.2,3.38 µM
Cn1nnc2c(C(N)=O)ncn2c1=O [Temozolomide],0,> 100 µM
C#Cc1cccc(Nc2ncnc3cc4c(cc23)OCCOCCOCCO4)c1 [Icotinib],2.1,> 10 µM
N#Cc1ccnc(N2C(=O)CC[C@H]2C(=O)N(c2cncc(F)c2)[C@H](C(=O)NC2CC(F)(F)C2)c2ccccc2Cl)c1 [Ivosidenib],0,> 10 µM
Clc1ccc(C(c2ccccc2Cl)C(Cl)Cl)cc1 (stereo unspecified) [Mitotane],0,> 10 µM
CC1(N)CCN(c2cnc(-c3cccc(Cl)c3Cl)c(N)n2)CC1 [NVP-SHP099],0,> 10 µM
CS(=O)(=O)c1ccc(C(=O)Nc2ccc(Cl)c(-c3ccccn3)c2)c(Cl)c1 [Vismodegib],0,> 10 µM
COc1cc(N2CCC(N3CCN(C)CC3)CC2)ccc1Nc1ncnc(Nc2ccccc2S(=O)(=O)C(C)C)n1 [ASP3026],6.5,2.29 µM
CC(C)[C@H](C(=O)Nc1ccc(C(=O)NO)cc1)c1ccccc1 [AR-42],7.5,1.94 µM

SMILES,drug sensitivity score [1],absolute EC50 for viability [2]
COc1ccc(Cn2ccc3ccc(C(=O)NO)cc32)cc1,0,9.93 µM
COc1cc(C)[nH]c(=O)c1CNC(=O)c1c(C)n([C@H](C)C2CCOCC2)c2ccccc12 [CPI-360],0,> 10 µM
O=C(Nc1nc2cccc(-c3ccc(CN4CCS(=O)(=O)CC4)cc3)n2n1)C1CC1 [Filgotinib],2.3,> 10 µM
Cc1c(C(=O)Nc2ccc(N3C[C@@H](C)O[C@@H](C)C3)nc2)cccc1-c1ccc(OC(F)(F)F)cc1 [Sonidegib],0,> 10 µM
c1cn2cc(-c3ccc4cn[nH]c4c3)nc(Nc3ccc(N4CCOCC4)cc3)c2n1 [Entospletinib],0,> 5 µM
COc1cc2c(Oc3ccc(NC(=O)C4(C(=O)Nc5ccc(F)cc5)CC4)cc3F)ccnc2cc1OCCCN1CCOCC1 [Foretinib],6,0.46 µM
CCNC(=O)C[C@@H]1N=C(c2ccc(Cl)cc2)c2cc(OC)ccc2-n2c(C)nnc21 [Molibresib],3.3,> 10 µM
CC(=O)O[C@@]12CO[C@@H]1C[C@H](O)[C@@]1(C)C(=O)[C@H](O)C3=C(C)[C@@H](OC(=O)[C@H](O)[C@@H](NC(=O)OC(C)(C)C)c4ccccc4)C[C@@](O)([C@@H](OC(=O)c4ccccc4)[C@H]21)C3(C)C [Docetaxel],5,> 1 µM
Nc1nc2cc(-c3ccc4ncc(C(=O)N5CCOCC5)n4c3)ccc2o1 [Serabelisib],3.3,> 10 µM
Nc1nccc(-c2c(-c3ccc(F)cc3)ncn2C2CCCCC2)n1,0.3,> 10 µM
Nc1nc(Nc2ccc3c(c2)CC[C@@H](N2CCCC2)CC3)nn1-c1cc2c(nn1)-c1ccccc1CCC2 [BGB324],6.7,2.49 µM
Cn1cc(-c2ccc(F)c(C(F)(F)F)c2)nc1C1CCN(c2ncnc3[nH]ncc23)CC1,0,> 10 µM
CN(C)CCOc1ccc(/C(=C(/CCCl)c2ccccc2)c2ccccc2)cc1 [Toremifene],0,> 10 µM
Clc1ccccc1C(c1ccccc1)(c1ccccc1)n1cccn1 [TRAM-34],0,> 1 µM
CCn1c(-c2nonc2N)nc2cnc(Oc3cccc(NC(=O)c4ccc(OCCN5CCOCC5)cc4)c3)cc21,7.3,> 10 µM
CC1(C)CNc2cc(NC(=O)c3cccnc3NCc3ccncc3)ccc21 [Motesanib],0,> 10 µM
C=CC(=O)Nc1cccc(Nc2nc(Nc3ccc(N4CCN(C(C)=O)CC4)cc3OC)ncc2C(F)(F)F)c1 [Rociletinib],5.8,2.86 µM
C[C@@H](Nc1cc(F)cc(F)c1)c1cc(C(=O)N(C)C)cc2c(=O)cc(N3CCOCC3)oc12 [AZD-8186],3.9,> 1 µM
O=C(NOCCO)c1ccc2cncn2c1Nc1ccc(I)cc1F [GDC-0623],0,> 2.5 µM
CNC(=O)c1nn(C)c2c1C(C)(C)Cc1cnc(Nc3ccc(N4CCN(C)CC4)cc3)nc1-2 [Milciclib],10.1,> 10 µM

SMILES,drug sensitivity score [1],absolute EC50 for viability [2]
C=CC(=O)Nc1cc(Nc2nccc(-c3cn(C)c4ccccc34)n2)c(OC)cc1N(C)CCN(C)C [Osimertinib],1.5,> 2.5 µM
C[C@H]1Oc2cc(cnc2N)-c2c(nn(C)c2C#N)CN(C)C(=O)c2ccc(F)cc21,0.2,> 1 µM
COc1cc(OC2CCN(C)CC2)ccc1Nc1ncc2c(n1)n(C1CCCC1)c(=O)n2C [AZ 3146],2.9,> 10 µM
CC1(C)CCC(CN2CCN(c3ccc(C(=O)NS(=O)(=O)c4ccc(NCC5CCOCC5)c([N+](=O)[O-])c4)c(Oc4cnc5[nH]ccc5c4)c3)CC2)=C(c2ccc(Cl)cc2)C1 [Venetoclax],0,> 1 µM
Cc1c(-c2c(-c3ccc(F)o3)sc3ncnc(O[C@H](Cc4ccccc4OCc4ccnn4CC(F)(F)F)C(=O)O)c23)ccc(OCCN2CCN(C)CC2)c1Cl,0,> 1 µM
COc1cc2/c(=N/c3ccc(Br)cc3F)nc[nH]c2cc1OCC1CCN(C)CC1 [Vandetanib],2.5,> 1 µM
Cn1cncc1[C@@](N)(c1ccc(Cl)cc1)c1ccc2c(c1)c(-c1cccc(Cl)c1)cc(=O)n2C [Tipifarnib],4.4,> 10 µM
CN(C)Cc1ccc(S(=O)(=O)n2ccc(/C=C/C(=O)NO)c2)cc1 [Resminostat],6,2.63 µM
CC(C)(C)c1cnc(CSc2cnc(NC(=O)C3CCNCC3)s2)o1 [SNS-032],12.8,> 10 µM
Nc1ccccc1NC(=O)c1ccc(CNC(=O)OCc2cccnc2)cc1 [Entinostat],3.5,> 10 µM
COc1cc2c(Oc3ccc4[nH]c(C)cc4c3F)ncnc2cc1OCCCN1CCCC1 [Cediranib],2.5,> 1 µM
Cc1ncc(-c2ccnc(Nc3ccc(S(C)(=O)=O)cc3)n2)n1C(C)C [AZD-5438],1.5,> 10 µM
CC(=O)[C@]1(O)Cc2c(O)c3c(c(O)c2[C@@H](O[C@H]2C[C@H](N)[C@H](O)[C@H](C)O2)C1)C(=O)c1ccccc1C3=O [Idarubicin],6.6,0.233 µM
COc1cc2c(cc1OCCCN1CCCC1)N=C(N)C21CCC1 [A-366],2.8,> 25 µM
CC[C@@H]1C(=O)N(C)c2cnc(Nc3ccc(C(=O)N[C@H]4CC[C@H](N5CCN(CC6CC6)CC5)CC4)cc3OC)nc2N1C(C)C [Volasertib],1.5,> 1 µM
Cc1cn(-c2cc(NC(=O)c3ccc(C)c(Nc4nccc(-c5cnccn5)n4)c3)cc(C(F)(F)F)c2)cn1 [Radotinib],0,> 10 µM
Nc1ncn([C@@H]2O[C@H](CO)[C@@H](O)[C@H]2O)c(=O)n1 [Azacitidine],2.3,> 10 µM
O=C(O)C(=O)O.[NH-][C@@H]1CCCC[C@H]1[NH-].[Pt+2] [Oxaliplatin],0.7,> 100 µM
